From article PMC9358681 (Biochemical pharmacology, 2022)
Where “and” joins values, the source holds several entries; their conditions need not be identical. Identical values can stand only once. Like-named read-outs stand apart in the source and are kept apart here.

Columns and labels:
human A2BAR [1] = target: T1, human A2BAR (Homo sapiens, UniProt P29275); experiment: [3H]PSB-603 displacement on CHO-spap-hA2BAR membranes; type: binding
T1 construct: host or cells: CHO-spap
T1 sequence (P29275 1-332): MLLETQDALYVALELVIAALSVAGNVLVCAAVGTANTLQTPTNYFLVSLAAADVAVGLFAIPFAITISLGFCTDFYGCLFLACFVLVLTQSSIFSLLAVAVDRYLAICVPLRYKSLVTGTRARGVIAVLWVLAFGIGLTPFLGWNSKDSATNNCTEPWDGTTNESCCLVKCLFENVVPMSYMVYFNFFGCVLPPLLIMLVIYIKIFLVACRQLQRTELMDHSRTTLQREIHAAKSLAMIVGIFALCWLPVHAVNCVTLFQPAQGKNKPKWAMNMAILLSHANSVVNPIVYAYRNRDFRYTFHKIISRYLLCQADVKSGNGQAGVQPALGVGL

human A2BAR [2] = target: T1, human A2BAR; experiment: [3H]PSB-603 competition association assay; type: binding; conditions: for Kd: read-out: Kinetic KD (koff/kon); for koff: read-out: koff (converted); for kon: read-out: kon (converted); for RT: RT = 1/koff
Experimental: In all radioligand binding experiments, CHO-spap-hA2BAR membranes were thawed and homogenized using an Ultra Turrax homogenizer at 24,000 rpm (IKA-Werke GmbH & Co.KG, Staufen, Germany), diluted in assay buffer to the desired concentration (10–30 μg per well or Eppendorf tube). All materials were brought to 25 °C, 30 min prior to the experiment. ZM241385 (10 μM) was used to determine nonspecific binding (NSB).
Addition of CHO-spap-hA2BAR membrane aliquots initiated the association. The amount of receptor-bound radioligand was determined at different time points up to 3 hr. After 3 hr the incubation was terminated and samples were obtained as described under “Displacement experiments”.
All competition association data were globally fitted.

A1 adenosine receptor [3] = target: T2, A1 adenosine receptor (Homo sapiens, UniProt P30542); experiment: Radioligand binding, human A1 ([3H]R-PIA, HEK-293); conditions: HEK-293, [3H]R-PIA
T2 sequence (P30542 1-326): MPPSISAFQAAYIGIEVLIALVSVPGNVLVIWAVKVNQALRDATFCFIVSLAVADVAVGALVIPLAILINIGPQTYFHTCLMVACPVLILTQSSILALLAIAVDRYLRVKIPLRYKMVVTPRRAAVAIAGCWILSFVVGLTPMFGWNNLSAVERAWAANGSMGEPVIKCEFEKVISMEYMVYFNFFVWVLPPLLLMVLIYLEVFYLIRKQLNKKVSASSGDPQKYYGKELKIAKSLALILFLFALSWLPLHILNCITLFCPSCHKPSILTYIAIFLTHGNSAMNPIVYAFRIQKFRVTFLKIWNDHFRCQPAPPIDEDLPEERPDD
Source text: (§1) The A2B receptor selectivity was generally low, especially at the rat A2B receptor.

A1 adenosine receptor [4] = target: T3, A1 adenosine receptor (Rattus norvegicus, UniProt P25099); experiment: Radioligand binding, rat A1 ([3H]R-PIA, HEK-293); conditions: HEK-293, [3H]R-PIA
T3 sequence (P25099 1-326): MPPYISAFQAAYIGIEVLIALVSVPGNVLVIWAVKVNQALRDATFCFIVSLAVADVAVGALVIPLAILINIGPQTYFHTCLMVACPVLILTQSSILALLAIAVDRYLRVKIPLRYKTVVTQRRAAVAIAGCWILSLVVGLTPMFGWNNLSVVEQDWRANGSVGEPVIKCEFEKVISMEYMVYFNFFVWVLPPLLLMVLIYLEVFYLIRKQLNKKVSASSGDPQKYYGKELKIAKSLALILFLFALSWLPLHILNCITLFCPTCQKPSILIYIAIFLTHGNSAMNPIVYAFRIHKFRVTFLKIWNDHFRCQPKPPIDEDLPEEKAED
Source text: as §1

A2A adenosine receptor [5] = target: A2A adenosine receptor (Homo sapiens, UniProt P29274); experiment: Radioligand binding, human A2A ([3H]CGS21680, HEK-293); conditions: HEK-293, [3H]CGS21680
Chain of A2A adenosine receptor (Homo sapiens, UniProt P29274) (P29274 whole entry): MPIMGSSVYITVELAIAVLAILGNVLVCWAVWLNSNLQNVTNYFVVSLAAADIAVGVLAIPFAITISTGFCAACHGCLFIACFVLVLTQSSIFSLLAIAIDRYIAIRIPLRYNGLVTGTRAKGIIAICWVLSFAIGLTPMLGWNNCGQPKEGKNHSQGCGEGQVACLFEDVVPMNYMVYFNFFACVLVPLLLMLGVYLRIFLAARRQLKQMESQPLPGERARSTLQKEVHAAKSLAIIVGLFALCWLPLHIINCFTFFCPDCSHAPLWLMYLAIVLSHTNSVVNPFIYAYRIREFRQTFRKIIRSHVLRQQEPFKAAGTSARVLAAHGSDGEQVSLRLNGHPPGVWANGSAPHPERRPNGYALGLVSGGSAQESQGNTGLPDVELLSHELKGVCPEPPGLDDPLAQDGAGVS

A2A adenosine receptor [6] = target: A2A adenosine receptor (Rattus norvegicus, UniProt P30543); experiment: Radioligand binding, rat A2A ([3H]CGS21680, HEK-293); conditions: rat (r), HEK-293, [3H]CGS21680
Chain of A2A adenosine receptor (Rattus norvegicus, UniProt P30543) (P30543 whole entry): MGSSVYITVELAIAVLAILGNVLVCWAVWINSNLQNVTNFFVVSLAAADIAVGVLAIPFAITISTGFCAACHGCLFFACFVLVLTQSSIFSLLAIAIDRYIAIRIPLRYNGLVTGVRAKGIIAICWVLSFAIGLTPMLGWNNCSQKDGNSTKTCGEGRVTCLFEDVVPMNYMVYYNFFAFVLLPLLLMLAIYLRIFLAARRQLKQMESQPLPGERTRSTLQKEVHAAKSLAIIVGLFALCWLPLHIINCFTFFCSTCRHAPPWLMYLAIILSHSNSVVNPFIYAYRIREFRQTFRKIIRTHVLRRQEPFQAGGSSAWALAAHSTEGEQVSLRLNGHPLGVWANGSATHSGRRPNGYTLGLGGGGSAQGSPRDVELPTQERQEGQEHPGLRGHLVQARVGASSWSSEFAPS

A2B adenosine receptor [7] = target: T4, A2B adenosine receptor (Homo sapiens, UniProt P29275); experiment: Radioligand binding, human A2B ([125I]I-ABOPX, HEK-293); conditions: HEK-293, [125I]I-ABOPX
T4 sequence (P29275 1-332): T1 sequence (P29275 1-332)

A2B adenosine receptor [8] = target: T5, A2B adenosine receptor (Rattus norvegicus, UniProt P29276); experiment: Radioligand binding, rat A2B ([125I]I-ABOPX, HEK-293); conditions: rat (r), HEK-293, [125I]I-ABOPX
T5 sequence (P29276 1-332): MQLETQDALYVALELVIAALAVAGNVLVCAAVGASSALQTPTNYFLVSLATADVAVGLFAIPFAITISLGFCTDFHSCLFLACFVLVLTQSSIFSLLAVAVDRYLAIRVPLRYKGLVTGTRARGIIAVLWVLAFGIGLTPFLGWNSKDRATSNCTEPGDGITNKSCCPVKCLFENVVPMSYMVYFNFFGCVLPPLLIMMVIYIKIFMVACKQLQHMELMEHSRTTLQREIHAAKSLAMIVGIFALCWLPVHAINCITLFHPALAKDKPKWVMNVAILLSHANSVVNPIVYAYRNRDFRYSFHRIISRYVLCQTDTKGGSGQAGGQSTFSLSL

A3 adenosine receptor = target: T6, A3 adenosine receptor (Homo sapiens, UniProt P0DMS8); experiment: Radioligand binding, human A3 ([125I]I-AB-MECA, HEK-293); conditions: HEK-293, [125I]I-AB-MECA
T6 sequence (P0DMS8 1-318): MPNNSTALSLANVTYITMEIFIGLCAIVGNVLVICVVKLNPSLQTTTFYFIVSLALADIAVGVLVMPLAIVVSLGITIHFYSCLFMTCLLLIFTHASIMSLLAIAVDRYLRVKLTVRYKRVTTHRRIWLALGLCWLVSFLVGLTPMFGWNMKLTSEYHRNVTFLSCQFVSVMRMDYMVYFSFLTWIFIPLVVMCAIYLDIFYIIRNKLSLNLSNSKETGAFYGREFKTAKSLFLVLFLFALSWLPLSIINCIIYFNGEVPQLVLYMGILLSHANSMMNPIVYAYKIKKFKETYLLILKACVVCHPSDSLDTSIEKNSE
Source text: as §1

human A2BAR [9] = target: T1, human A2BAR; experiment: [3H]PSB-603 radioligand washout assay on membranes; type: binding; conditions: 10 × IC50, 2 hr pre-incubation, 4x washed, 25 °C
Experimental: Were performed at 25 °C and in a total volume of 400 μL. […] Subsequently, the samples were centrifuged at 13200 rpm (16 100g) at 4 °C for 5 min and the supernatant containing unbound ligand was removed. Pellets were resuspended in 1 mL of assay buffer, and samples were incubated for 10 min at 25 °C in the thermomixer. After four centrifugation and washing cycles in total, supernatant was discarded and the membranes were resuspended in a total volume of 400 μL containing 1.5 nM [^3H]PSB-603. After 2 hr at 25 °C incubations were terminated by rapid filtration through GF/C filters using a Brandel harvester and the samples were obtained as described under “Saturation binding experiments”.
Both the washed and the unwashed conditions were assessed. For the washed condition, the unlabeled compounds were incubated with the target for 2 hr, followed by four wash and centrifugation cycles. Subsequently, [^3H]PSB-603 was co-incubated which led to competition of the radioligand with the unlabeled ligand still bound after the washing procedure. For the unwashed condition no washing was performed before the determination of radioligand displacement. Based on the experimental set-up, the long RT compound and the covalent ligand would be predicted to remain bound to A2BARs, as they would not be easily removed during the washing steps, and thus to result in lower radioligand binding.

[10] = target: T7, hA2BAR (CHO-spap-hA2BAR cells) (Homo sapiens, UniProt P29275); experiment: Label-free whole-cell washout assay; type: cell-based; conditions: 30 × IC50 antagonist 4 hr, NECA EC80, control without antagonist = 100%
T7 construct: host or cells: CHO-spap
T7 sequence (P29275 1-332): T1 sequence (P29275 1-332)
Experimental: The assay followed the same initial steps as described in “Determination of pIC50 values for hA2BAR antagonists”. […] Subsequently, wells were washed by aspiration of the medium, followed by the addition of 95 μL fresh serum free medium. For the unwashed cells, the medium was not removed but was pipetted up and down to simulate any mechanical cell stress.
Data were analyzed using GraphPad Prism 8.0.
Subsequently, a washout assay was performed and the cell response to the compounds was monitored and evaluated (Fig. 7). […] For the evaluation of the unwashed condition, the medium was not refreshed but was pipetted up and down in order to mimic the possible mechanical stress induced to the washed cells.

CHO-spap cells = experiment: Label-free whole-cell assay on empty CHO-spap cells; type: cell-based; conditions: NECA 10 pM – 1 μM
Experimental: After maintaining at room temperature for about 30 min, the E-plate was placed into the recording station housed in a 37 °C and 5% CO2 incubator.

[11] = […] [3H]PSB-603, 2 h, 25 °C, read-out: Ki (converted)
[12] = competing ligand at 1.0-fold IC50, up to 3 hr, 25 °C

Row | SMILES | Ki (human A2BAR [1]; [11]) | Kd (human A2BAR [2]) | koff (human A2BAR [2]) | kon (human A2BAR [2]) | Ki (A1 adenosine receptor [3]) | Ki (A1 adenosine receptor [4]) | Ki (A2A adenosine receptor [5]) | Ki (A2A adenosine receptor [6]) | Ki (A2B adenosine receptor [7]) | Ki (A2B adenosine receptor [8]) | Ki (A3 adenosine receptor) | RT (human A2BAR [2]; [12]) | A2BARs still occupied by ligand after the washing cycles (human A2BAR [9]) | compound removed (washed away) during the washing procedure (human A2BAR [9]) | washout - %AUC, 1x washed (NECA signaling) [10] | washout - %AUC, unwashed (NECA signaling) [10] | Ki (human A2BAR [1]; Ki) | Kinetic KD (koff/kon) (human A2BAR [2]; [12]) | response to NECA (CHO-spap cells)
1 | CCCn1c(=O)c2[nH]c(-c3ccc(OCC(=O)Nc4ccc(C(=O)OC)cc4)cc3)nc2n(CCC)c1=O [Compound 17] | 2.29 nM | 1.8 ± 0.62 nM | 0.000183 s⁻¹ | 100000 M⁻¹ s⁻¹ |  |  |  |  |  |  |  | 87 min and 87 ± 29 min | 44% | 56% | 19 ± 6% | 10 ± 3% |  |  | 
2 | CCCn1c(=O)c2[nH]c(-c3ccc(OCC(=O)Nc4ccc(N=C=S)cc4)cc3)nc2n(CCC)c1=O [Compound 29, 2-(4-(2,6-dioxo-1,3-dipropyl-2,3,6,7-tetrahydro-1H-purin-8-yl)phenoxy)-N-(4-isothiocyanatophenyl)acetamide] |  |  |  |  |  |  |  |  |  |  |  | Covalent mechanism (see text) |  | 18% |  |  | 9.28 nM | Covalent mechanism (see text) | 
3 | CCCn1c(=O)c2[nH]c(-c3ccc(OCC(=O)Nc4ccc(C(=O)NC)cc4)cc3)nc2n(CCC)c1=O [Compound 18] | 19.9 nM | 10 ± 0.89 nM | 0.00208 s⁻¹ | 200000 M⁻¹ s⁻¹ |  |  |  |  |  |  |  | 8 min and 8.0 min and 8.0 ± 0.2 min |  | 85% | 68 ± 7% | 12 ± 1% |  |  | 
4 | CCNC(=O)[C@H]1O[C@@H](n2cnc3c(N)ncnc32)[C@H](O)[C@@H]1O [NECA, 5^′-N-ethylcarboxamidoadenosine] |  |  |  |  |  |  |  |  |  |  |  |  |  |  |  |  |  |  | No response
5 | CCCn1c(=O)c2[nH]c(-c3ccc(OCC(=O)N[C@H](C)c4ccccc4)cc3)nc2n(CCC)c1=O [Compound 24, (R)-2-(4-(2,6-dioxo-1,3-dipropyl-2,3,6,7-tetrahydro-1H-purin-8-yl)phenoxy)-N-(1-phenylethyl)acetamide] | 15.2 nM | 7.5 ± 3.9 nM | 0.00273 s⁻¹ | 367000 M⁻¹ s⁻¹ | 27.3 ± 4.9 nM | 5.23 nM | 64.4 ± 21.2 nM | 375 nM | 8.5 ± 1.1 nM | 21.1 nM | 63.9 ± 16.5 nM | 6.1 ± 1.6 min |  |  |  |  |  |  | 

The next lines start with results.

Row | Ki (human A2BAR [1]; [11]) | Kd (human A2BAR [2]) | koff (human A2BAR [2]) | kon (human A2BAR [2]) | Ki (A1 adenosine receptor [3]) | Ki (A1 adenosine receptor [4]) | Ki (A2A adenosine receptor [5]) | Ki (A2A adenosine receptor [6]) | Ki (A2B adenosine receptor [7]) | Ki (A2B adenosine receptor [8]) | Ki (A3 adenosine receptor) | RT (human A2BAR [2]; [12]) | A2BARs still occupied by ligand after the washing cycles (human A2BAR [9]) | compound removed (washed away) during the washing procedure (human A2BAR [9]) | washout - %AUC, 1x washed (NECA signaling) [10] | washout - %AUC, unwashed (NECA signaling) [10] | SMILES | Ki (human A2BAR [1]; Ki) | Kinetic KD (koff/kon) (human A2BAR [2]; [12]) | response to NECA (CHO-spap cells)
6 | 3.6 nM | 3.8 ± 1.7 nM | 0.0011 s⁻¹ | 283000 M⁻¹ s⁻¹ | 63.9 ± 16.5 nM | 6.55 nM | 33.6 ± 0.1 nM | 251 nM | 5.5 ± 1.2 nM | 20 nM | 89.9 ± 11.6 nM |  |  |  |  |  | CCCn1c(=O)c2[nH]c(-c3ccc(OCC(=O)NCc4ccc(F)cc4)cc3)nc2n(CCC)c1=O [Compound 21, 2-(4-(2,6-dioxo-1,3-dipropyl-2,3,6,7-tetrahydro-1H-purin-8-yl)phenoxy)-N-(4-fluorobenzyl)acetamide] |  |  | 
7 | 9.08 nM | 12 ± 4.7 nM | 0.000767 s⁻¹ | 66700 M⁻¹ s⁻¹ | 212 ± 68 nM | 8.85 nM | 20.8 ± 2.4 nM | 207 nM | 8 ± 2.2 nM | 486 nM | 140 ± 7 nM | 22 ± 3.5 min |  |  |  |  | CCCn1c(=O)c2[nH]c(-c3ccc(OCC(=O)NCc4ccc(C)cc4)cc3)nc2n(CCC)c1=O [Compound 20, 2-(4-(2,6-dioxo-1,3-dipropyl-2,3,6,7-tetrahydro-1H-purin-8-yl)phenoxy)-N-(4-methylbenzyl)acetamide] |  |  | 
